Assay results published in US11053204B2, “Pyrimidinyloxy benzene derivatives as herbicides” (FMC Corporation, priority 2015, dated 2021).

Tests used:
Assay in all cases: Test C postemergence, plant response rating
Assay type in all cases: in vivo
corn (Zea mays) = conditions: for Plant response rating, Corn: scale 0 to 100; for Corn plant response rating: scale 0 to 100 (0 no effect, 100 complete control)
In short: (§1)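 Visual injury score, 0 = no effect, 100 = complete control, assigned against untreated controls after 13 to 15 d in the greenhouse. Compounds were applied in a surfactant-containing non-phytotoxic solvent mix, preemergence to seeded loam/sand or silt loam soil, or postemergence to 1- to 4-leaf plants (2 to 18 cm).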

soybean (Glycine max) = conditions: for Plant response rating, Soybean: scale 0 to 100; for Soybean plant response rating: scale 0 to 100 (0 no effect, 100 complete control)
In short: as §1

[1] = tested on: foxtail, giant (giant foxtail, Setaria faberii); conditions: for Plant response rating, Foxtail, Giant: scale 0 to 100; for Foxtail, Giant plant response rating: scale 0 to 100 (0 no effect, 100 complete control)
In short: as §1

[2] = tested on: blackgrass (Alopecurus myosuroides); conditions: for Plant response rating, Blackgrass: scale 0 to 100; for Blackgrass plant response rating: scale 0 to 100 (0 no effect, 100 complete control)
In short: as §1

kochia (Kochia scoparia) = conditions: for Plant response rating, Kochia: scale 0 to 100; for Kochia plant response rating: scale 0 to 100 (0 no effect, 100 complete control)
In short: as §1

[3] = tested on: ragweed (common ragweed, Ambrosia elatior); conditions: for Plant response rating, Ragweed: scale 0 to 100; for Ragweed plant response rating: scale 0 to 100 (0 no effect, 100 complete control)
In short: as §1

[4] = tested on: nutsedge, yellow (yellow nutsedge, Cyperus esculentus); conditions: for Plant response rating, Nutsedge, Yellow: scale 0 to 100; for Nutsedge, Yellow plant response rating: scale 0 to 100 (0 no effect, 100 complete control)
In short: as §1

[5] = tested on: oilseed rape (Brassica napus); conditions: for Plant response rating, Oilseed Rape: scale 0 to 100; for Oilseed Rape plant response rating: scale 0 to 100 (0 no effect, 100 complete control)
In short: as §1

[6] = tested on: waterhemp (common waterhemp, Amaranthus rudis); conditions: for Plant response rating, Waterhemp: scale 0 to 100; for Waterhemp plant response rating: scale 0 to 100 (0 no effect, 100 complete control)
In short: as §1

[7] = tested on: galium (catchweed bedstraw, Galium aparine); conditions: for Plant response rating, Galium: scale 0 to 100; for Galium plant response rating: scale 0 to 100 (0 no effect, 100 complete control)
In short: as §1

[8] = tested on: oat, wild (wild oat Avena fatua); conditions: for Plant response rating, Oat, Wild: scale 0 to 100; for Oat, Wild plant response rating: scale 0 to 100 (0 no effect, 100 complete control)
In short: as §1

[9] = tested on: velvetleaf (Abutilon theophrasti); conditions: for Plant response rating, Velvetleaf: scale 0 to 100; for Velvetleaf plant response rating: scale 0 to 100 (0 no effect, 100 complete control)
In short: as §1

[10] = tested on: wheat (winter wheat, Triticum aestivum); conditions: for Plant response rating, Wheat: scale 0 to 100; for Wheat plant response rating: scale 0 to 100 (0 no effect, 100 complete control)
In short: as §1

[11] = tested on: lambsquarters (Chenopodium album); conditions: for Plant response rating, Lambsquarters: scale 0 to 100; for Lambsquarters plant response rating: scale 0 to 100 (0 no effect, 100 complete control)
In short: as §1

[12] = tested on: morningglory (Ipomoea coccinea); conditions: for Plant response rating, Morningglory: scale 0 to 100; for Morningglory plant response rating: scale 0 to 100 (0 no effect, 100 complete control)
In short: as §1

[13] = tested on: chickweed (common chickweed, Stellaria media); conditions: for Plant response rating, Chickweed: scale 0 to 100; for Chickweed plant response rating: scale 0 to 100 (0 no effect, 100 complete control)
In short: as §1

**Q.** How did the “Plant response rating, Corn” value (corn (Zea mays); 16 g ai/ha) turn out when `O=C(OCCC(F)(F)F)c1c(Br)cccc1Oc1ncc(Br)cn1` [Compound 33] was run?
**A.** 20

**Q.** And the “Plant response rating, Corn” value (corn (Zea mays); 31 g ai/ha)?
**A.** 25

**Q.** What about the “Corn plant response rating” value (corn (Zea mays); 62 g ai/ha) of the same compound?
**A.** 25

**Q.** What about the “Corn plant response rating” value (corn (Zea mays); 125 g ai/ha) of the same compound?
**A.** 30

**Q.** And the “Plant response rating, Soybean” value (soybean (Glycine max); 16 g ai/ha)?
**A.** 25

**Q.** And the “Plant response rating, Soybean” value (soybean (Glycine max); 31 g ai/ha)?
**A.** 65

**Q.** And the “Soybean plant response rating” value (soybean (Glycine max); 62 g ai/ha)?
**A.** 30

**Q.** What about the “Soybean plant response rating” value (soybean (Glycine max); 125 g ai/ha) of the same compound?
**A.** 55

**Q.** And the “Plant response rating, Foxtail, Giant” value ([1]; 16 g ai/ha)?
**A.** 5

**Q.** And the “Plant response rating, Foxtail, Giant” value ([1]; 31 g ai/ha)?
**A.** 10

**Q.** And the “Foxtail, Giant plant response rating” value ([1]; 62 g ai/ha)?
**A.** 10

**Q.** What about the “Foxtail, Giant plant response rating” value ([1]; 125 g ai/ha) of the same compound?
**A.** 20

**Q.** And the “Plant response rating, Blackgrass” value ([2]; 16 g ai/ha)?
**A.** 5

**Q.** What about the “Plant response rating, Blackgrass” value ([2]; 31 g ai/ha) of the same compound?
**A.** 5

**Q.** And the “Blackgrass plant response rating” value ([2]; 62 g ai/ha)?
**A.** 10

**Q.** What about the “Blackgrass plant response rating” value ([2]; 125 g ai/ha) of the same compound?
**A.** 20

**Q.** And the “Plant response rating, Kochia” value (kochia (Kochia scoparia); 16 g ai/ha)?
**A.** 90

**Q.** And the “Plant response rating, Kochia” value (kochia (Kochia scoparia); 31 g ai/ha)?
**A.** 95

**Q.** What about the “Kochia plant response rating” value (kochia (Kochia scoparia); 62 g ai/ha) of the same compound?
**A.** 95

**Q.** What about the “Kochia plant response rating” value (kochia (Kochia scoparia); 125 g ai/ha) of the same compound?
**A.** 95

**Q.** What about the “Plant response rating, Ragweed” value ([3]; 16 g ai/ha) of the same compound?
**A.** 40

**Q.** What about the “Plant response rating, Ragweed” value ([3]; 31 g ai/ha) of the same compound?
**A.** 30

**Q.** What about the “Ragweed plant response rating” value ([3]; 62 g ai/ha) of the same compound?
**A.** 50

**Q.** What about the “Ragweed plant response rating” value ([3]; 125 g ai/ha) of the same compound?
**A.** 60

**Q.** What about the “Plant response rating, Nutsedge, Yellow” value ([4]; 16 g ai/ha) of the same compound?
**A.** 5

**Q.** And the “Plant response rating, Nutsedge, Yellow” value ([4]; 31 g ai/ha)?
**A.** 5

**Q.** What about the “Nutsedge, Yellow plant response rating” value ([4]; 62 g ai/ha) of the same compound?
**A.** 5

**Q.** What about the “Nutsedge, Yellow plant response rating” value ([4]; 125 g ai/ha) of the same compound?
**A.** 10

**Q.** And the “Plant response rating, Oilseed Rape” value ([5]; 16 g ai/ha)?
**A.** 35

**Q.** And the “Plant response rating, Oilseed Rape” value ([5]; 31 g ai/ha)?
**A.** 45

**Q.** And the “Oilseed Rape plant response rating” value ([5]; 62 g ai/ha)?
**A.** 55

**Q.** And the “Oilseed Rape plant response rating” value ([5]; 125 g ai/ha)?
**A.** 95

**Q.** What about the “Plant response rating, Waterhemp” value ([6]; 16 g ai/ha) of the same compound?
**A.** 90

**Q.** And the “Plant response rating, Waterhemp” value ([6]; 31 g ai/ha)?
**A.** 80

**Q.** What about the “Waterhemp plant response rating” value ([6]; 62 g ai/ha) of the same compound?
**A.** 100

**Q.** And the “Waterhemp plant response rating” value ([6]; 125 g ai/ha)?
**A.** 100

**Q.** And the “Plant response rating, Galium” value ([7]; 16 g ai/ha)?
**A.** 50

**Q.** And the “Plant response rating, Galium” value ([7]; 31 g ai/ha)?
**A.** 70

**Q.** And the “Galium plant response rating” value ([7]; 62 g ai/ha)?
**A.** 80

**Q.** And the “Galium plant response rating” value ([7]; 125 g ai/ha)?
**A.** 85

**Q.** And the “Plant response rating, Oat, Wild” value ([8]; 16 g ai/ha)?
**A.** 5

**Q.** What about the “Plant response rating, Oat, Wild” value ([8]; 31 g ai/ha) of the same compound?
**A.** 10

**Q.** What about the “Oat, Wild plant response rating” value ([8]; 62 g ai/ha) of the same compound?
**A.** 25

**Q.** What about the “Oat, Wild plant response rating” value ([8]; 125 g ai/ha) of the same compound?
**A.** 30

**Q.** What about the “Plant response rating, Velvetleaf” value ([9]; 16 g ai/ha) of the same compound?
**A.** 25

**Q.** What about the “Plant response rating, Velvetleaf” value ([9]; 31 g ai/ha) of the same compound?
**A.** 50

**Q.** What about the “Velvetleaf plant response rating” value ([9]; 62 g ai/ha) of the same compound?
**A.** 65

**Q.** What about the “Velvetleaf plant response rating” value ([9]; 125 g ai/ha) of the same compound?
**A.** 75

**Q.** And the “Plant response rating, Wheat” value ([10]; 16 g ai/ha)?
**A.** 0

**Q.** What about the “Plant response rating, Wheat” value ([10]; 31 g ai/ha) of the same compound?
**A.** 0

**Q.** And the “Wheat plant response rating” value ([10]; 62 g ai/ha)?
**A.** 0

**Q.** And the “Wheat plant response rating” value ([10]; 125 g ai/ha)?
**A.** 5

**Q.** What about the “Plant response rating, Lambsquarters” value ([11]; 16 g ai/ha) of the same compound?
**A.** 60

**Q.** What about the “Plant response rating, Lambsquarters” value ([11]; 31 g ai/ha) of the same compound?
**A.** 70

**Q.** What about the “Lambsquarters plant response rating” value ([11]; 62 g ai/ha) of the same compound?
**A.** 80

**Q.** And the “Lambsquarters plant response rating” value ([11]; 125 g ai/ha)?
**A.** 90

**Q.** What about the “Plant response rating, Morningglory” value ([12]; 16 g ai/ha) of the same compound?
**A.** 55

**Q.** And the “Plant response rating, Morningglory” value ([12]; 31 g ai/ha)?
**A.** 65

**Q.** And the “Morningglory plant response rating” value ([12]; 62 g ai/ha)?
**A.** 75

**Q.** What about the “Morningglory plant response rating” value ([12]; 125 g ai/ha) of the same compound?
**A.** 65

**Q.** And the “Plant response rating, Chickweed” value ([13]; 16 g ai/ha)?
**A.** 50

**Q.** And the “Plant response rating, Chickweed” value ([13]; 31 g ai/ha)?
**A.** 55

**Q.** What about the “Chickweed plant response rating” value ([13]; 62 g ai/ha) of the same compound?
**A.** 85

**Q.** What about the “Chickweed plant response rating” value ([13]; 125 g ai/ha) of the same compound?
**A.** 85
